According to patent US20240360139A1, “BLOOD BRAIN BARRIER PENETRATING SELECTIVE INHIBITORS OF ROCK2 PROTEIN KINASES AND USES THEREOF” (GENOSCO Inc., priority 2023, published 2024):

Experiments:
[1] = target: T1, Recombinant ROCK1 (amino acids 1-477) (Homo sapiens, UniProt Q13464); assay: ROCK inhibition assay, LANCE Ultra TR-FRET (ROCK1); type: biochemical; details: 1 mM of ATP
T1 construct: Recombinant ROCK1 (amino acids 1-477)
Description: (§1) Kinase IC50 was determined through an in vitro assay based on LANCE Ultra TR-FRET (Time-Resolved Fluorescence Resonance Energy Transfer) homogeneous technologies method 5 (Perkin Elmer). Recombinant ROCK1 (amino acids 1-477) and ROCK2 (amino acids 5-554) proteins were purchased from Carna Biosciences and SignalChem. Compound activities were measured by Envision and IC50s were calculated. The assays were performed in white LUMITRAC™ 200 96 well half-area microplates from Greiner Bio-One. The kinase reaction buffer consisted of 50 mM HEPES pH 7.5, 1 mM EGTA, 10 mM MgCl2, 2 mM DTT and 0.01% 10 Tween-20. Kinases were incubated with 50 nM (ULight-CREBtide) substrate in the presence of 1 mM (ROCK1) or 1 mM (ROCK2) of ATP. The kinase reaction was carried out for 1 hour before addition of a stopping buffer to a final of 10 mM EDTA and 0.6 nM of LANCE Ultra Europium anti-phospho-CREB (Ser133) antibody (PerkinElmer TRF0200) in LANCE detection buffer. All assay incubations were performed at room temperature, and the microplates were sealed with polyester film during that time. The reaction was incubated for 1 hour, and the signal was read in Envision in TR-FRET mode (excitation at 320 nm and emission at 615/665 nm).
(§2) As used herein, a way to describe potency of inhibitory activity (nM) is a value of inhibitory activity at 50% (IC50).

[2] = target: T2, Recombinant ROCK2 (amino acids 5-554) (Homo sapiens, UniProt O75116); assay: ROCK inhibition assay, LANCE Ultra TR-FRET (ROCK2); type: biochemical; details: 1 mM of ATP
T2 construct: ROCK2 (amino acids 5-554)
T2 sequence (O75116 5-554): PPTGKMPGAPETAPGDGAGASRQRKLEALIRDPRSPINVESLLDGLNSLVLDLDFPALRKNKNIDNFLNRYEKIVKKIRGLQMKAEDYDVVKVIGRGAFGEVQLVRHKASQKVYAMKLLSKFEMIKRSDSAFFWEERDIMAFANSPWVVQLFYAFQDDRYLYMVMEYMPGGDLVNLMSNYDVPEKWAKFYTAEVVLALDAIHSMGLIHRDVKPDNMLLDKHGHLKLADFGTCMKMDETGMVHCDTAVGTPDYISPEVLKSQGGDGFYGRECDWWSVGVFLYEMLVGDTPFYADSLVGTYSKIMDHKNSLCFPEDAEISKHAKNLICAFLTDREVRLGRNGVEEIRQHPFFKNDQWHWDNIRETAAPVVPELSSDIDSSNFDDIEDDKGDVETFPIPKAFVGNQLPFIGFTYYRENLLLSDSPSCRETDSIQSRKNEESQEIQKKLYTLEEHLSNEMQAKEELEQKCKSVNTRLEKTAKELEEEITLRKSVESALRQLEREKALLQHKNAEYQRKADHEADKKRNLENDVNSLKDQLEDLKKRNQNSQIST
Description: as §1, §2

T1 sequence (Q13464 1-477): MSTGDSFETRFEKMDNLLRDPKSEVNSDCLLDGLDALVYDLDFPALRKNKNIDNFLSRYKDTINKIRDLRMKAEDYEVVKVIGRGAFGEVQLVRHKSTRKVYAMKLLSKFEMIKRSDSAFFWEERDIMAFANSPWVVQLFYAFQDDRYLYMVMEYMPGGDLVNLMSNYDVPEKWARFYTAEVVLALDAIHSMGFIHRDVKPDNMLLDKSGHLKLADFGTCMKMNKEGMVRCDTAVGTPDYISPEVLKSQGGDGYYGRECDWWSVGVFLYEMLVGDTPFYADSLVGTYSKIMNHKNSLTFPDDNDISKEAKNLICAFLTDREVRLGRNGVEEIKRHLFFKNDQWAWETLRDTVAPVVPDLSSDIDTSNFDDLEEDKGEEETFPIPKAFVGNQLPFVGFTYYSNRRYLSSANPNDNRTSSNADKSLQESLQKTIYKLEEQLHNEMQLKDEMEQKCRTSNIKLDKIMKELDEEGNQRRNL

| IC50 [1] | IC50 [2] | SMILES |
| --- | --- | --- |
| < 0.02 µM | < 0.02 µM | COc1[nH]ncc1-c1ccc2c(C(=O)C3COc4ccc(Cl)cc4C3)cn(CC3(N)CC3)c2c1 (centres unmarked) [Compound 4-1, [1-[(1-aminocyclopropyl)methyl]-6-(5-methoxy-1H-pyrazol-4-yl)indol-3-yl]-(6-chlorochroman-3-yl)methanone] |
| < 0.02 µM | < 0.02 µM | NC1(Cn2cc(C(=O)C3COc4ccc(Cl)cc4C3)c3ccc(-c4cn[nH]c4Cl)cc32)CC1 (centres unmarked) [Compound 4-2] |
| 0.021 to 0.2 µM | < 0.02 µM | COc1ccc2c(c1)CC(C(=O)c1cn(CC3(N)CC3)c3cc(-c4cn[nH]c4Cl)ccc13)CO2 (centres unmarked) [Compound 4-3] |
| 0.021 to 0.2 µM | < 0.02 µM | NC1(Cn2cc(C(=O)C3COc4ccc(F)cc4C3)c3ccc(-c4cn[nH]c4Cl)cc32)CC1 (centres unmarked) [Compound 4-4] |
| < 0.02 µM | < 0.02 µM | NC1(Cn2cc(C(=O)C3COc4ccc(Cl)cc4C3)c3ccc(-c4cn[nH]c4F)cc32)CC1 (centres unmarked) [Compound 4-5] |
| 0.021 to 0.2 µM | < 0.02 µM | COc1ccc2c(c1)CC(C(=O)c1cn(CC3(N)CC3)c3cc(-c4cn[nH]c4F)ccc13)CO2 (centres unmarked) [Compound 4-6] |
| > 0.501 µM | 0.201 to 0.5 µM | Cc1n[nH]cc1-c1ccc2c(C(=O)C3COc4ccc(Cl)cc4C3)cn(CCN(C)C)c2c1 (centres unmarked) [Compound 5-1, (6-chlorochroman-3-yl)-[1-[2-(dimethylamino)ethyl]-6-(3-methyl-1H-pyrazol-4-yl)indol-3-yl]methanone] |
| > 0.501 µM | 0.201 to 0.5 µM | CN(C)CCn1cc(C(=O)C2COc3ccccc3O2)c2ccc(-c3cn[nH]c3)cc21 (centres unmarked) [Compound 5-2] |
| > 0.501 µM | < 0.02 µM | COc1ccc2c(c1)C[C@H](C(=O)c1cn(CCN(C)C)c3cc(-c4c[nH]nc4Cl)ccc13)CO2 [Compound 5-4] |
| > 0.501 µM | < 0.02 µM | COc1ccc2c(c1)C[C@@H](C(=O)c1cn(CCN(C)C)c3cc(-c4c[nH]nc4Cl)ccc13)CO2 [Compound 5-8] |
| 0.201 to 0.5 µM | < 0.02 µM | COc1ccc2c(c1)C[C@H](C(=O)c1cn(C[C@H]3CCN3CCF)c3cc(-c4c[nH]nc4Cl)ccc13)CO2 [Compound 5-9] |
| 0.201 to 0.5 µM | < 0.02 µM | COc1ccc2c(c1)C[C@H](C(=O)c1cn(C[C@H]3CCN3CC(F)F)c3cc(-c4c[nH]nc4Cl)ccc13)CO2 [Compound 5-10] |
| 0.021 to 0.2 µM | 0.021 to 0.2 µM | COc1ccc2c(c1)C[C@H](C(=O)c1cn(C[C@H]3CCN3CC(F)(F)F)c3cc(-c4c[nH]nc4Cl)ccc13)CO2 [Compound 5-11] |
| > 0.501 µM | 0.021 to 0.2 µM | CCN(CCF)CCn1cc(C(=O)[C@@H]2COc3ccc(OC)cc3C2)c2ccc(-c3c[nH]nc3Cl)cc21 [Compound 5-12] |
| 0.201 to 0.5 µM | < 0.02 µM | CCN(CCn1cc(C(=O)[C@@H]2COc3ccc(OC)cc3C2)c2ccc(-c3c[nH]nc3Cl)cc21)CC(F)F [Compound 5-13] |
| > 0.501 µM | 0.021 to 0.2 µM | CCN(CCn1cc(C(=O)[C@@H]2COc3ccc(OC)cc3C2)c2ccc(-c3c[nH]nc3Cl)cc21)CC(F)(F)F [Compound 5-14] |
| > 0.501 µM | 0.021 to 0.2 µM | COc1ccc2c(c1)C[C@H](C(=O)c1cn(CCN(CCF)CCF)c3cc(-c4c[nH]nc4Cl)ccc13)CO2 [Compound 5-15] |
| > 0.501 µM | 0.201 to 0.5 µM | CN(C)CCn1cc(C(=O)C2COc3ccc(F)cc3O2)c2ccc(-c3c[nH]nc3Cl)cc21 (centres unmarked) [Compound 5-16] |
| > 0.501 µM | > 0.501 µM | CN(C)CCn1cc(C(=O)C2COc3ccc(Cl)cc3O2)c2ccc(-c3c[nH]nc3Cl)cc21 (centres unmarked) [Compound 5-17] |
| 0.201 to 0.5 µM | 0.201 to 0.5 µM | CN(C)CCn1cc(C(=O)C2COc3ccccc3O2)c2ccc(-c3c[nH]nc3Cl)cc21 (centres unmarked) [Compound 5-18] |
| > 0.501 µM | 0.021 to 0.2 µM | CN(C)CCn1cc(C(=O)C2COc3ccc(F)cc3C2)c2ccc(-c3c[nH]nc3Cl)cc21 (centres unmarked) [Compound 5-19] |
| 0.201 to 0.5 µM | < 0.02 µM | CN(C)CCn1cc(C(=O)[C@@H]2COc3ccc(F)cc3C2)c2ccc(-c3c[nH]nc3Cl)cc21 [Compound 5-21] |
| > 0.501 µM | > 0.501 µM | CN(C)CCn1cc(C(=O)C2COc3ccc(Cl)cc3C2)c2ccc(-c3ccnn3C)cc21 (centres unmarked) [Compound 5-24] |
| > 0.501 µM | > 0.501 µM | Cc1nocc1-c1ccc2c(C(=O)C3COc4ccc(F)cc4C3)cn(CCN(C)C)c2c1 (centres unmarked) [Compound 5-26] |
| > 0.501 µM | < 0.02 µM | COc1[nH]ncc1-c1ccc2c(C(=O)C3COc4ccc(Cl)cc4C3)cn(CCN(C)C)c2c1 (centres unmarked) [Compound 5-28] |
| 0.201 to 0.5 µM | < 0.02 µM | COc1[nH]ncc1-c1ccc2c(C(=O)[C@@H]3COc4ccc(Cl)cc4C3)cn(CCN(C)C)c2c1 [Compound 5-30] |

| IC50 [1] | IC50 [2] | SMILES |
| --- | --- | --- |
| > 0.501 µM | 0.201 to 0.5 µM | CN(C)CCn1cc(C(=O)[C@H]2COc3ccc(Cl)cc3C2)c2ccc(-c3cn[nH]c3Cl)cc21 [Compound 5-35] |
| 0.201 to 0.5 µM | < 0.02 µM | CN(C)CCn1cc(C(=O)[C@@H]2COc3ccc(Cl)cc3C2)c2ccc(-c3cn[nH]c3Cl)cc21 [Compound 5-36] |
| > 0.501 µM | < 0.02 µM | COc1[nH]ncc1-c1ccc2c(C(=O)C3COc4ccc(F)cc4C3)cn(CCN(C)C)c2c1 (centres unmarked) [Compound 5-37] |
| > 0.501 µM | < 0.02 µM | COc1[nH]ncc1-c1ccc2c(C(=O)[C@@H]3COc4ccc(F)cc4C3)cn(CCN(C)C)c2c1 [Compound 5-38] |
| > 0.501 µM | 0.201 to 0.5 µM | COc1[nH]ncc1-c1ccc2c(C(=O)[C@H]3COc4ccc(F)cc4C3)cn(CCN(C)C)c2c1 [Compound 5-40] |
| 0.201 to 0.5 µM | 0.021 to 0.2 µM | COc1ccc2c(c1)CC(C(=O)c1cn(CCN(C)C)c3cc(-c4cn[nH]c4OC)ccc13)CO2 (centres unmarked) [Compound 5-41] |
| > 0.501 µM | 0.201 to 0.5 µM | COc1[nH]ncc1-c1ccc2c(C(=O)C3COc4ccc(Cl)cc4O3)cn(CCN(C)C)c2c1 (centres unmarked) [Compound 5-42] |
| > 0.501 µM | 0.021 to 0.2 µM | CN(C)CCn1nc(C(=O)C2COc3ccccc3O2)c2ccc(-c3cn[nH]c3)cc21 (centres unmarked) [Compound 5-43] |
| 0.201 to 0.5 µM | 0.021 to 0.2 µM | CN(C)CCn1nc(C(=O)[C@@H]2COc3ccccc3O2)c2ccc(-c3cn[nH]c3)cc21 [Compound 5-44] |
| > 0.501 µM | < 0.02 µM | COc1n[nH]cc1-c1ccc2c(C(=O)C3COc4ccc(Cl)cc4C3)nn(CCN(C)C)c2c1 (centres unmarked) [Compound 5-45] |
| 0.201 to 0.5 µM | < 0.02 µM | COc1n[nH]cc1-c1ccc2c(C(=O)[C@@H]3COc4ccc(Cl)cc4C3)nn(CCN(C)C)c2c1 [Compound 5-46] |
| > 0.501 µM | 0.021 to 0.2 µM | COc1n[nH]cc1-c1ccc2c(C(=O)[C@H]3COc4ccc(Cl)cc4C3)nn(CCN(C)C)c2c1 [Compound 5-47] |
| > 0.501 µM | < 0.02 µM | CN(C)CCn1nc(C(=O)C2COc3ccc(Cl)cc3C2)c2ccc(-c3c[nH]nc3F)cc21 (centres unmarked) [Compound 5-48] |
| 0.021 to 0.2 µM | < 0.02 µM | COc1ccc2c(c1)CC(C(=O)c1nn(CCN(C)C)c3cc(-c4c[nH]nc4OC)ccc13)CO2 (centres unmarked) [Compound 5-49] |
| 0.021 to 0.2 µM | < 0.02 µM | COc1ccc2c(c1)CC(C(=O)c1nn(CCN(C)C)c3cc(-c4c[nH]nc4Cl)ccc13)CO2 (centres unmarked) [Compound 5-50] |
| > 0.501 µM | 0.021 to 0.2 µM | COc1n[nH]cc1-c1ccc2c(C(=O)C3COc4ccc(F)cc4C3)nn(CCN(C)C)c2c1 (centres unmarked) [Compound 5-51] |
| 0.201 to 0.5 µM | < 0.02 µM | CN(C)CCn1nc(C(=O)C2COc3ccc(F)cc3C2)c2ccc(-c3c[nH]nc3Cl)cc21 (centres unmarked) [Compound 5-52] |
| 0.201 to 0.5 µM | < 0.02 µM | CN(C)CCn1nc(C(=O)[C@@H]2COc3ccc(F)cc3C2)c2ccc(-c3c[nH]nc3Cl)cc21 [Compound 5-53] |
| > 0.501 µM | 0.201 to 0.5 µM | CN(C)CCn1nc(C(=O)C2COc3ccccc3C2)c2ccc(-c3c[nH]nc3C(F)(F)F)cc21 (centres unmarked) [Compound 5-54] |
| 0.201 to 0.5 µM | < 0.02 µM | CN(C)CCn1nc(C(=O)C2COc3ccc(F)cc3C2)c2ccc(-c3c[nH]nc3F)cc21 (centres unmarked) [Compound 5-55] |
| 0.201 to 0.5 µM | < 0.02 µM | CN1CC[C@H]1Cn1nc(C(=O)[C@@H]2COc3ccc(F)cc3C2)c2ccc(-c3c[nH]nc3F)cc21 [Compound 5-57] |
| > 0.501 µM | 0.021 to 0.2 µM | COc1n[nH]cc1-c1ccc2c(C(=O)C3COc4ccc(Cl)cc4O3)nn(CCN(C)C)c2c1 (centres unmarked) [Compound 5-59] |
| > 0.501 µM | 0.021 to 0.2 µM | CN(C)CCn1nc(C(=O)C2COc3ccc(Cl)cc3O2)c2ccc(-c3c[nH]nc3F)cc21 (centres unmarked) [Compound 5-60] |
| > 0.501 µM | 0.021 to 0.2 µM | CN(C)CCn1nc(C(=O)C2COc3ccc(Cl)cc3O2)c2ccc(-c3c[nH]nc3Cl)cc21 (centres unmarked) [Compound 5-61] |
| > 0.501 µM | > 0.501 µM | COc1n[nH]cc1-c1ccc2c(C(=O)C3CCOc4ccc(F)cc4C3)nn(CCN(C)C)c2c1 (centres unmarked) [Compound 5-62] |
| > 0.501 µM | > 0.501 µM | CN(C)CCn1nc(C(=O)C2CCOc3ccc(F)cc3C2)c2ccc(-c3c[nH]nc3Cl)cc21 (centres unmarked) [Compound 5-63] |
